In general, IC50 refers to the midpoint of a concentration-inhibition curve. A low value points to higher potency.

Positions of bridges follow the written chain, without caps; N, C: chain ends. Residues, ends and D or L forms follow the SMILES beside them.

The source of these data is patent publication US9624269B2, “Peptide inhibitors of BACE1” (GENENTECH, INC., priority 2011, dated 2017).

Sequence of human BACE1 (rhBACE1) (P56817 46-457 limits assumed): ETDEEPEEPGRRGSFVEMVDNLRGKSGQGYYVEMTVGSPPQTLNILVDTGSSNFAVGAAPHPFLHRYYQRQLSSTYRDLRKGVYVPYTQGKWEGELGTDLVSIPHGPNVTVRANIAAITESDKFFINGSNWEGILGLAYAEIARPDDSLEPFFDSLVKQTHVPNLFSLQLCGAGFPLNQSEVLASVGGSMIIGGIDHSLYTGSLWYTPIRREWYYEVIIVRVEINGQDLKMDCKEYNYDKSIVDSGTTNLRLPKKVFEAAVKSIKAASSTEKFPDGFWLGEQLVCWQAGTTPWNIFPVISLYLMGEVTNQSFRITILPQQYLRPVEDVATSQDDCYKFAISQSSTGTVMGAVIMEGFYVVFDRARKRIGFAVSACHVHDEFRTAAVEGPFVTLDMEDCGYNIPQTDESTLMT

This test addresses human BACE1 (rhBACE1) (Homo sapiens, UniProt P56817). Briefly: Caliper BACE1 activity assay (microfluidic capillary electrophoresis). Also on record: containing human BACE1 (extracellular domain). The settings on record: 12 nM rhBACE1, 1 μM FAM-substrate, pH 4.4. Format: biochemical. On the procedure: An MCE assay reactions can be carried out in a standard enzymatic reaction, initiated by the addition of substrate to enzyme and 4× compound, containing human BACE1 (extracellular domain), amyloid precursor protein beta secretase active site peptide (FAM-[…]-CONH2 (SEQ ID NO: 20)), 50 mM NaOAc pH 4.4 and 0.1% CHAPS. After incubation for 60 minutes at ambient temperature, the product and substrate in each reaction is separated using a 12-sipper microfluidic chip analyzed on an LC3000® (both, Caliper Life Sciences). The separation of product and substrate is optimized by choosing voltages and pressure using the manufacturer's optimization software. Substrate conversion is calculated from the electrophoregram using HTS Well Analyzer software (Caliper Life Sciences).
BACE1, BACE2 and Cathepsin D Activity Assay Using Microfluidic Capillary Electrophoresis (MCE).
BACE1, BACE2, and Cathepsin D reactions were carried out in a final volume of 20 μl per well in a 384-well microplate using a Caliper LabChip 3000 (Hopkinton, Mass.). A standard enzymatic reaction, initiated by the addition of 10 μ12× substrate to 5 μl of 4× enzyme and 5 μl of 4× peptide or small molecule inhibitor, contained 12 nM rhBACE1, 1 μM FAM-[…]-amide (SEQ ID NO: 20), 50 mM NaOAc, pH 4.4, 0.1% CHAPS. The same reaction conditions were used for rhBACE2 (5 nM) and Cathepsin D (6 nM) (Cat. No. 219394; EMD Biosciences, San Diego, Calif.). After incubation for 60 min at room temperature, the product and substrate in each reaction were separated using a 12-sipper microfluidic chip. Separation of product and substrate was optimized by choosing voltages and pressure using the Caliper Optimizer software. The separation buffer contained 100 mM HEPES, pH 7.2, 0.015% Brij-35, 0.1% Coating Reagent #3, 10 mM EDTA and 5% DMSO. The separation conditions used a downstream voltage of −500 V, an upstream voltage of −2250 V, and a screening pressure of −1.2 psi. The product and substrate fluorescence was excited at 488 nm and detected at 530 nm. Substrate conversion was calculated from the electrophoregram using the Caliper HTS Well Analyzer software.
`CC[C@H](C)[C@@H]1NC(=O)CNC(=O)[C@H](CC(C)C)NC(=O)[C@H](CC(C)C)NC(=O)[C@H](CCCNC(=N)N)NC(=O)[C@@H](NC(=O)[C@H](Cc2ccccc2)NC(=O)[C@H](CCSC)NC(=O)[C@H](CO)NC(=O)[C@H](CCC(=O)O)NC(=O)[C@H](CCC(=O)O)NC(=O)[C@H](CC(N)=O)NC(C)=O)CSSC[C@@H](C(=O)NCC(N)=O)NC(=O)CNC1=O` [BACE055] (Ac-NEESMFCRLLGIGCG-NH2; disulfide 7-14): the IC50 came out at 11 ± 2 nM.
Under `CC[C@H](C)[C@@H]1NC(=O)[C@H](C)NC(=O)[C@H](CC(C)C)NC(=O)[C@H](CC(C)C)NC(=O)[C@H](CCCNC(=N)N)NC(=O)[C@@H](NC(=O)[C@H](Cc2ccc(O)cc2)NC(=O)[C@H](CCSC)NC(=O)[C@H](CO)NC(=O)[C@H](CCC(=O)O)NC(=O)[C@H](CCC(=O)O)NC(=O)[C@H](CC(N)=O)NC(C)=O)CSSC[C@@H](C(=O)NCC(N)=O)NC(=O)CNC1=O` [BACE051] (Ac-NEESMYCRLLAIGCG-NH2; disulfide 7-14) stands 18 ± 5 nM.
The molecule `CC[C@H](C)[C@@H]1NC(=O)CNC(=O)[C@H](CC(C)C)NC(=O)[C@H](CC(C)C)NC(=O)[C@H](CCCNC(=N)N)NC(=O)[C@@H](NC(=O)[C@H](Cc2ccc(O)cc2)NC(=O)[C@H](CCSC)NC(=O)[C@H](CO)NC(=O)[C@H](CCC(=O)O)NC(=O)[C@H](CCC(=O)O)NC(=O)[C@H](CC(N)=O)NC(C)=O)CSSC[C@@H](C(=O)NCC(N)=O)NC(=O)[C@H](C)NC1=O` [BACE053] (Ac-NEESMYCRLLGIACG-NH2; disulfide 7-14) registered an IC50 of 7 nM.
The molecule `CC[C@H](C)[C@@H]1NC(=O)CNC(=O)[C@H](CC(C)C)NC(=O)[C@H](CC(C)C)NC(=O)[C@H](CCCNC(=N)N)NC(=O)[C@@H](NC(=O)[C@H](Cc2ccc(O)cc2)NC(=O)[C@H](CCSC)NC(=O)[C@H](CO)NC(=O)[C@H](CCC(=O)O)NC(=O)[C@H](C)NC(=O)[C@H](CC(N)=O)NC(C)=O)CSSC[C@@H](C(=O)NCC(N)=O)NC(=O)CNC1=O` [BACE043] (Ac-NAESMYCRLLGIGCG-NH2; disulfide 7-14) gave an IC50 of 13 ± 2 nM.
`CC[C@H](C)[C@@H]1NC(=O)CNC(=O)[C@H](CC(C)C)NC(=O)[C@H](CC(C)C)NC(=O)[C@H](CCCNC(=N)N)NC(=O)[C@@H](NC(=O)[C@H](Cc2ccc(O)cc2)NC(=O)[C@H](CCSC)NC(=O)[C@H](Cc2c[nH]cn2)NC(=O)[C@H](CCC(=O)O)NC(=O)[C@H](CCC(=O)O)NC(=O)[C@H](CC(N)=O)NC(C)=O)CSSC[C@@H](C(=O)NCC(N)=O)NC(=O)CNC1=O` [BACE056] (Ac-NEEHMYCRLLGIGCG-NH2; disulfide 7-14) came in with an IC50 of 3570 ± 3650 nM.
In turn, `CC[C@H](C)[C@@H]1NC(=O)CNC(=O)[C@H](CC(C)C)NC(=O)[C@H](CC(C)C)NC(=O)[C@H](CCCNC(=N)N)NC(=O)[C@@H](NC(=O)[C@H](Cc2ccc(O)cc2)NC(=O)[C@H](CCSC)NC(=O)[C@H](CO)NC(=O)[C@H](CCC(=O)O)NC(=O)[C@H](CCC(=O)O)NC(=O)[C@H](C)NC(C)=O)CSSC[C@@H](C(=O)NCC(N)=O)NC(=O)CNC1=O` [BACE042] (Ac-AEESMYCRLLGIGCG-NH2; disulfide 7-14) showed a half-maximal inhibitory concentration (IC50) of 12 ± 8 nM.
